The subject of test [1] is factor IX deficient mice (F9−/−). As to the kind of experiment: Hemophilia B model, tail transection bleeding time. The class given is in vivo, mouse. Conditions: distal tail transected at 4 mm, injected into an orbital vein 5 min before transection, vs no factor injected. The procedure:
(§1) For hemophilia A model, 8 to 10-week-old mice including WT mice, factor VIII deficient mice (F8−/−) and human protein C knockin and factor VIII deficient double mutant mice (hproC+/+, F8−/−) anesthetized using 80 mg/kg sodium pentobarbital i.p. were placed on their abdomen with the tail immersed in 37° C. saline. The distal tail of mice was transected at 4 mm (severe injury), and the bleeding was arterial and venous. Human factor VIII was injected into an orbital vein 5 min before the tail was transected. Controls were also performed in which no Human Factor VIII was injected. For hemophilia B model, the same procedures were conducted except that factor IX deficient mice (F9−/−), human protein C knockin and factor IX deficient double mutant mice (hproC+/+, F9−/−), and human factor IX were used. Bleeding time was measured following the tail-tip transection and immediate immersion of the tail in 10 ml of saline at 37° C. Bleeding time was set at cessation of blood leakage for at least 1 min. After 15 min, the tail was removed from the saline and the bleeding time measure was ended.

Test [2] concerns human protein C knockin and factor IX deficient double mutant mice (hproC+/+, F9−/−). Description: Hemophilia B model, tail transection bleeding time. The class given is in vivo, mouse. Conditions: distal tail transected at 4 mm, injected into an orbital vein 5 min before transection, vs no factor injected. The procedure:
as §1

“human factor IX: human blood clotting factor IX, injected before tail transection in the hemophilia B model”: the bleeding time result in test [1] and in test [2] was “correct the prolonged bleeding time” in each case.
